Publication PMC9671962 (Communications Biology, 2022)
Values joined by “and” are separate entries in the source; they are usually repeats but may differ in a detail not shown here. Identical values can stand only once.

Experiments:
[1] = Biodistribution in healthy CB57/BL6 mice with estimated human dosimetry (OLINDA/EXM); type: in vivo
Description: Using female mice was justified due to the lack of sex-related differences observed from initial dose-finding studies. […] At various time points mice were euthanized and tissues were harvested, weighed, and assayed for radioactivity by gamma counter. Decay corrected data is presented as percent injected dose per gram of tissue (%ID/g). […]
(§1) Animal studies were performed in female mice due to the lack of sex-related differences for [^211At]PTT tolerability from initial dose response studies performed in female and male mice. Female mice were chosen due to their underlying behavior towards other study subjects that reduced nonstudy-related causes for decreased wellness. Pre-clinical efficacy studies were performed through “single mouse testing” to more closely recapitulate a clinical trial. […] Number size for treatment groups was determined by model tumor growth reproducibility, which was previously shown to have less than 5% normal variation with at least two animals. Statistical tests for tumor response and event-free survival (EFS) were performed as a grouped analysis that included all tumor models treated at each respective dose level (n = 2 per model per dose level). Statistical differences between treatment groups for tumor response was performed by paired-model T-test that compared reduction in tumor volume for the 36 MBq/kg dose level vs. 24 MBq/kg or 12 MBq/kg. Event free survival was measured by area over the curve method to quantify time to event, which was set as tumor growth exceeding 2 cm[3],[19]. Differences in EFS were tested across all treated models for each respective dose level, and against untreated controls, by paired-model ANOVA analysis. Associations of drug target expression and response were performed by linear regression analysis of EFS and PARP1 mRNA expression. Genetic signatures were visually presented as a function of EFS and no statistical tests were applied. Blood and marrow toxicity studies were performed with n = 5 sample sizes and powered to detect >20% differences between untreated controls and treated animals. Results were tested for significance by one-way ANOVA comparison from untreated controls. Marrow colony formation assays were performed in replicates of 2 for each mouse subject, dependent on marrow isolation, and all replicates are included in final analyses. Statistical analysis was performed by ordinary one-way ANOVA comparison between the mean of control and test groups. Biodistribution studies were performed with n = 3 mice per time-point. Human dosimetry was calculated using OLINDA/EXM v1.1 software by fitting time activity curves for biodistribution data in a healthy mouse model. Tumor dosimetry was calculated by OLINDA/EXM v1.1 by fitting time activity curves for NB-EBC1 tumors from biodistribution data. All statistical analyses were performed in GraphPad Prism version 9.3.1 unless indicated otherwise.

NB-EBC1x tumor = assay: Biodistribution, autoradiography and tumor dosimetry in NB-EBC1x tumor-bearing mice; type: in vivo, female SCID CB17 mice; details: for %Injected Dose/gram, tumor: NB-EBC1 tumor, single mouse
Description: At various time points mice were euthanized and tissues were harvested, weighed, and assayed for radioactivity by gamma counter. Decay corrected data presented as percent injected dose per gram of tissue (%ID/g). Human dosimetry was calculated using OLINDA/EXM software by fitting time activity curves for biodistribution data. Tissue autoradiography was performed by freezing excised tumors at 1 h postinjection of each respective treatment. One tumor was collected for each treatment group. Tumors were cryosectioned (Leica Cryotome) at a thickness of 20 µm. Each section was collected with a 200 µm gap and a total of three sections were collected for each tumor. Sections were then exposed to a phosphorfilm for 60 h and films were read on a Cyclone Plus phosphorimager (Perkin Elmer). Experimental conditions have been included in the Supplementary Methods.
as §1

[2] = design: method as in PMID 31072830; details: cited from earlier work
[3] = 1-year-old, from CB57/BL6 mouse biodistribution
[4] = 5-year-old, from CB57/BL6 mouse biodistribution

O=C1NCCn2c(-c3ccc([211At])cc3)nc3cccc1c32 [[^211At]PTT, Astatine-211-parthanatine]
marrow dose per dose fraction ([1]; 0.02 kg mouse, 36 MBq/kg): approximately 2.5 Gy
Estimated human dosimetry, Adrenals [1, 3]: 0.005 Gy per MBq/kg
Estimated human dosimetry, Brain [1, 3]: 0.002 Gy per MBq/kg
Estimated human dosimetry, Breasts [1, 3]: 0.005 Gy per MBq/kg
Estimated human dosimetry, Gallbladder [1, 3]: 0.005 Gy per MBq/kg
Estimated human dosimetry, Heart [1, 3]: 0.017 Gy per MBq/kg and 0.026 Gy per MBq/kg and 0.020 Gy per MBq/kg
Estimated human dosimetry, Kidneys [1, 3]: 0.021 Gy per MBq/kg and 0.034 Gy per MBq/kg and 0.028 Gy per MBq/kg
Estimated human dosimetry, Left Colon [1, 3]: 0.005 Gy per MBq/kg and 0.006 Gy per MBq/kg
Estimated human dosimetry, Liver [1, 3]: 0.019 Gy per MBq/kg and 0.018 Gy per MBq/kg and 0.033 Gy per MBq/kg
Estimated human dosimetry, Muscle [1, 3]: 0.008 Gy per MBq/kg and 0.016 Gy per MBq/kg
Estimated human dosimetry, Ovaries [1, 3]: 0.005 Gy per MBq/kg
Estimated human dosimetry, Red Marrow [1, 3]: 0.070 Gy per MBq/kg and 0.091 Gy per MBq/kg and 0.065 Gy per MBq/kg and 0.073 Gy per MBq/kg
Estimated human dosimetry, Right Colon [1, 3]: 0.005 Gy per MBq/kg and 0.006 Gy per MBq/kg
Estimated human dosimetry, Skin [1, 3]: 0.005 Gy per MBq/kg
Estimated human dosimetry, Small Intestine [1, 3]: 0.005 Gy per MBq/kg
Estimated human dosimetry, Spleen [1, 3]: 0.061 Gy per MBq/kg and 0.070 Gy per MBq/kg and 0.084 Gy per MBq/kg and 0.051 Gy per MBq/kg
Estimated human dosimetry, Stomach [1, 3]: 0.005 Gy per MBq/kg
Estimated human dosimetry, Testes [1, 3]: 0.005 Gy per MBq/kg
Estimated human dosimetry, Thymus [1, 3]: 0.005 Gy per MBq/kg
Estimated human dosimetry, Total Body [1, 3]: 0.009 Gy per MBq/kg and 0.010 Gy per MBq/kg and 0.011 Gy per MBq/kg
Estimated human dosimetry, Urinary Bladder [1, 3]: 0.005 Gy per MBq/kg
Estimated human dosimetry, Uterus [1, 3]: 0.005 Gy per MBq/kg
Estimated human dosimetry, Adrenals [1, 4]: 0.004 Gy per MBq/kg and 0.005 Gy per MBq/kg
Estimated human dosimetry, Brain [1, 4]: 0.002 Gy per MBq/kg and 0.001 Gy per MBq/kg
Estimated human dosimetry, Breasts [1, 4]: 0.004 Gy per MBq/kg and 0.005 Gy per MBq/kg
Estimated human dosimetry, Gallbladder [1, 4]: 0.004 Gy per MBq/kg and 0.005 Gy per MBq/kg
Estimated human dosimetry, Heart [1, 4]: 0.015 Gy per MBq/kg and 0.016 Gy per MBq/kg and 0.024 Gy per MBq/kg and 0.018 Gy per MBq/kg
Estimated human dosimetry, Kidneys [1, 4]: 0.018 Gy per MBq/kg and 0.029 Gy per MBq/kg and 0.023 Gy per MBq/kg
Estimated human dosimetry, Left Colon [1, 4]: 0.004 Gy per MBq/kg and 0.005 Gy per MBq/kg
Estimated human dosimetry, Ovaries [1, 4]: 0.004 Gy per MBq/kg and 0.005 Gy per MBq/kg
Estimated human dosimetry, Red Marrow [1, 4]: 0.074 Gy per MBq/kg and 0.069 Gy per MBq/kg and 0.093 Gy per MBq/kg and 0.066 Gy per MBq/kg
Estimated human dosimetry, Right Colon [1, 4]: 0.004 Gy per MBq/kg and 0.005 Gy per MBq/kg
Estimated human dosimetry, Skin [1, 4]: 0.004 Gy per MBq/kg and 0.005 Gy per MBq/kg
Estimated human dosimetry, Small Intestine [1, 4]: 0.004 Gy per MBq/kg and 0.005 Gy per MBq/kg
Estimated human dosimetry, Spleen [1, 4]: 0.055 Gy per MBq/kg and 0.063 Gy per MBq/kg and 0.076 Gy per MBq/kg and 0.049 Gy per MBq/kg
Estimated human dosimetry, Stomach [1, 4]: 0.004 Gy per MBq/kg and 0.005 Gy per MBq/kg
Estimated human dosimetry, Testes [1, 4]: 0.004 Gy per MBq/kg and 0.005 Gy per MBq/kg
Estimated human dosimetry, Thymus [1, 4]: 0.004 Gy per MBq/kg and 0.005 Gy per MBq/kg
Estimated human dosimetry, Total Body [1, 4]: 0.009 Gy per MBq/kg and 0.011 Gy per MBq/kg
Estimated human dosimetry, Urinary Bladder [1, 4]: 0.004 Gy per MBq/kg and 0.005 Gy per MBq/kg
Estimated human dosimetry, Uterus [1, 4]: 0.004 Gy per MBq/kg and 0.005 Gy per MBq/kg
predicted kidney dose scaled for an adult ([1]; derived from the mouse model): 0.34–0.44 mGy/MBq
predicted kidney dose ([1]; extrapolated from mouse biodistribution to a 1-year-old human phantom): 0.026 Gy per MBq/kg
average tumor dose (NB-EBC1x tumor; 1-year-old phantom, derived from NB-EBC1 tumor-bearing mouse model): 0.060 Gy per MBq/kg
thyroid uptake with co-administration of potassium iodide (NB-EBC1x tumor; 1 h): partially blocked
Absorbed Dose, Tumor (NB-EBC1x tumor; NB-EBC1 tumor-bearing CB57 SCID mice, three values): 4.5716 cGy/MBq/kg and 5.9806 cGy/MBq/kg and 7.417 cGy/MBq/kg
%Injected Dose/gram, tumor (NB-EBC1x tumor; time point 0.5): 2.4065 %ID/g and 3.551 %ID/g and 6.66 %ID/g
%Injected Dose/gram, tumor (NB-EBC1x tumor; time point 1): 8.705 %ID/g and 13.3276 %ID/g and 24.86 %ID/g
%Injected Dose/gram, tumor (NB-EBC1x tumor; time point 6): 7.986 %ID/g and 8.236 %ID/g and 8.192 %ID/g
%Injected Dose/gram, tumor (NB-EBC1x tumor; time point 24): 0.008485 %ID/g and 1.144 %ID/g and 1.578 %ID/g
tumor penetrance by ex-vivo autoradiography (NB-EBC1x tumor; NB-EBC1 tumors, 1 h postinjection): high tumor penetrance
tumor dosimetry (estimated) (NB-EBC1x tumor; NB-EBC1x tumor-bearing mouse model): 6 cGy/MBq/kg
cumulative absorbed dose to tumor (NB-EBC1x tumor; NB-EBC1x, after 4 dose fractions of 36 MBq/kg): 8.6 Gy
absorbed dose to tumor per dose fraction (NB-EBC1x tumor; NB-EBC1x, per 36 MBq/kg dose): 2.15 Gy
biological half-life in tumor (NB-EBC1x tumor; seen in mice in the present study): 5.1 hr
outcome of single dose ([2]; 1,480 kBq administered as a single dose): lethal
outcome of fractionated dose ([2]; 1,480 kBq separated into 4 dose fractions given twice weekly): tolerated
